Source: ChEMBL document CHEMBL3727356, “Therapeutic compounds and compositions” (2014)

Columns and labels:
Pyruvate kinase PKLR [1] = molecular target: Pyruvate kinase PKLR (Homo sapiens, UniProt P30613, R510Q); test: Activation of PKR R510Q mutant (unknown origin) incubated for 60 mins in presence of ADP, PEP and NADH by Spectraax microplate reader based assay
Pyruvate kinase PKLR [2] = molecular target: Pyruvate kinase PKLR (Homo sapiens, UniProt P30613, R532W); test: Activation of PKR R532W mutant (unknown origin) incubated for 60 mins in presence of ADP, PEP and NADH by Spectraax microplate reader based assay
Pyruvate kinase PKLR [3] = molecular target: T1, Pyruvate kinase PKLR (Homo sapiens, UniProt P30613); test: Activation of wild type PKR (unknown origin) incubated for 60 mins in presence of ADP, PEP and NADH by Spectraax microplate reader based assay
Pyruvate kinase PKLR [4] = molecular target: T1, Pyruvate kinase PKLR; test: Activation of wild type PKR (unknown origin) by cell based assay

T1 sequence (P30613 whole entry): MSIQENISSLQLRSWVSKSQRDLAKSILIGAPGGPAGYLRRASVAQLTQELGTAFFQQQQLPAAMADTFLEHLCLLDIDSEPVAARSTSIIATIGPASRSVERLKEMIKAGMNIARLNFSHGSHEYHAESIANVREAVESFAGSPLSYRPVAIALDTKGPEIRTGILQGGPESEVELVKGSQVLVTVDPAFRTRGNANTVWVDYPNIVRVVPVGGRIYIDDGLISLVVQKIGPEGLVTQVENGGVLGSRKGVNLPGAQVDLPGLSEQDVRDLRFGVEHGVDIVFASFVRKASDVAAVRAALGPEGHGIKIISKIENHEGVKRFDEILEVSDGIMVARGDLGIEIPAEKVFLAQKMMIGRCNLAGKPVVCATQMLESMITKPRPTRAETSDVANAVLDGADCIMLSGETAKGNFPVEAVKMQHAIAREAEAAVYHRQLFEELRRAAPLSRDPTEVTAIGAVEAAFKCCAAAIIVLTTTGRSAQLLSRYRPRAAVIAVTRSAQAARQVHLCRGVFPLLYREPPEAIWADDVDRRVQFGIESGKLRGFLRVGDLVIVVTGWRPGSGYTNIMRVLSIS
Sequence of Pyruvate kinase PKLR (Homo sapiens, UniProt P30613, R532W) (P30613 whole entry R532W): as the sequence (P30613 whole entry) above, with R532W counted along it
Sequence of Pyruvate kinase PKLR (Homo sapiens, UniProt P30613, R510Q) (P30613 whole entry R510Q): as the sequence (P30613 whole entry) above, with R510Q counted along it

Compound | AC50 (Pyruvate kinase PKLR [1]) [µM] | AC50 (Pyruvate kinase PKLR [2]) [µM] | AC50 (Pyruvate kinase PKLR [3]) [µM] | AC50 (Pyruvate kinase PKLR [4]) [µM]
O=C(c1ccc(NS(=O)(=O)c2cccc3[nH]cnc23)cc1)N1CCC(O)(c2ccccc2Cl)CC1 | > 10 | ≥ 1.01 | ≥ 1.01 | 
O=C(c1ccc(NS(=O)(=O)c2ccccc2Cl)cc1)N1CCC(O)(Cc2ccccc2)CC1 | ≤ 1 | ≤ 1 | ≤ 1 | 
CC1(O)CCC(C2(O)CCN(C(=O)c3ccc(NS(=O)(=O)c4cccc5nccnc45)cc3)CC2)CC1 (stereo unspecified) | ≤ 1 | ≤ 1 | ≤ 1 | 
COc1cc(NS(=O)(=O)c2cccc3cccnc23)ccc1C(=O)N1CCC(O)(Cc2ccccc2)CC1 | < 0.1 | < 0.1 | < 0.1 | 
O=C(c1ccc(NS(=O)(=O)c2cccc3nccnc23)cc1)N1CCC(O)(c2ncc(Cl)s2)CC1 | ≥ 1.01 | ≤ 1 | ≤ 1 | 
CC1(O)CCC(C2(O)CCN(C(=O)c3ccc(NS(=O)(=O)c4cccc5scnc45)cc3)CC2)CC1 (stereo unspecified) | ≥ 1.01 | ≥ 1.01 | ≤ 1 | 
CC(C)CC1(O)CCN(C(=O)c2ccc(NS(=O)(=O)Cc3ccccn3)cc2)CC1 | > 10 | > 10 | > 10 | 
O=C(c1ccc(NS(=O)(=O)c2ccc(F)c3cccnc23)cc1)N1CCC(O)(Cc2ccccc2F)CC1 | < 0.1 | < 0.1 | < 0.1 | 
CCS(=O)(=O)CC1(O)CCN(C(=O)c2ccc(NS(=O)(=O)c3cccc4nccnc34)cc2)CC1 | > 10 | ≥ 1.01 | ≥ 1.01 | 
O=C(c1ccc(NS(=O)(=O)c2c[nH]c3cccnc23)cc1)N1CCC(O)(c2ccccc2Cl)CC1 | > 10 | > 10 | > 10 | 
O=C(c1ccc(NS(=O)(=O)c2cccc3c2OCC3)cc1)N1CCC(O)(c2ccccc2Cl)CC1 | > 10 | ≥ 1.01 | ≥ 1.01 | 
CC(C)CC1(O)CCN(C(=O)c2ccc(NS(=O)(=O)c3cccc4c3OCC4)cc2)CC1 | ≥ 1.01 | ≥ 1.01 | ≥ 1.01 | 

Next, values leading:

AC50 (Pyruvate kinase PKLR [1]) [µM] | AC50 (Pyruvate kinase PKLR [2]) [µM] | AC50 (Pyruvate kinase PKLR [3]) [µM] | AC50 (Pyruvate kinase PKLR [4]) [µM] | Compound
< 0.1 | < 0.1 | < 0.1 | < 0.1 | CC(C)CC1(O)CCN(C(=O)c2ccc(NS(=O)(=O)c3cccc4scnc34)cc2)CC1
< 0.1 | < 0.1 | < 0.1 | < 0.1 | Nc1nc2c(S(=O)(=O)Nc3ccc(C(=O)N4CCC(O)(c5cccc(F)c5F)CC4)cc3)cccc2s1
< 0.1 | < 0.1 | < 0.1 | < 0.1 | CC(C)CC1(O)CCN(C(=O)c2ccc(NS(=O)(=O)c3cccc4nc(N)cnc34)cc2)CC1
< 0.1 | < 0.1 | < 0.1 | < 0.1 | CC(C)(C)CC1(O)CCN(C(=O)c2ccc(NS(=O)(=O)c3cccc4cccnc34)cc2)CC1
< 0.1 | < 0.1 | < 0.1 |  | CC1(CC2(O)CCN(C(=O)c3ccc(NS(=O)(=O)c4cccc5scnc45)cc3)CC2)CC1
> 10 | > 10 | > 10 |  | CC(C)CC1(O)CCN(C(=O)c2ccc(NS(=O)(=O)c3cccc4ncc(O)nc34)cc2)CC1
< 0.1 | < 0.1 | < 0.1 |  | CNc1nc2c(S(=O)(=O)Nc3ccc(C(=O)N4CCC(O)(c5ccccc5Cl)CC4)cc3)cccc2s1
< 0.1 | < 0.1 | < 0.1 |  | CC(CC1(O)CCN(C(=O)c2ccc(NS(=O)(=O)c3cccc4c(O)ncnc34)cc2)CC1)C(F)(F)F (stereo unspecified)
> 10 | > 10 | > 10 |  | Cn1ccc(C2(O)CCN(C(=O)c3ccc(NS(=O)(=O)c4cccc5scnc45)cc3)CC2)n1
> 10 | > 10 | > 10 |  | CC(C)CC1(O)CCN(C(=O)c2ccc(NS(=O)(=O)c3cccc4[nH]cnc34)cc2)CC1
< 0.1 | < 0.1 | < 0.1 |  | O=C(c1ccc(NS(=O)(=O)c2cccc3scnc23)cc1)N1CCC(O)(/C=C/CC(F)(F)F)CC1
< 0.1 |  | < 0.1 | < 0.1 | Nc1nc2c(S(=O)(=O)Nc3ccc(C(=O)N4CCC(O)(/C=C/CC(F)(F)F)CC4)cc3)cccc2s1
